Results as given in ChEMBL document CHEMBL5584215, “Biological evaluation of indolactams for in vitro bryostatin 1-like activity” (Bioorg Med Chem Lett, 2024).
Calls of active or inactive are those of the source. The rule behind the calls is not given here.

How the values were obtained:
U-937 [1] = experiment: Induction of cell attachment in human U-937 cells at 1 to 100 nM incubated for 72 hrs; type: functional, cell-based; settings: dose 1-100 nM
U-937 [2] = experiment: Induction of cell attachment in human U-937 cells at 1000 nM incubated for 72 hrs relative to control; type: functional
U-937 [3] = experiment: Induction of cell attachment in human U-937 cells at 100 nM incubated for 72 hrs; type: functional, cell-based
LNCaP [4] = experiment: Growth inhibition of human LNCaP cells at 5 to 1500 nM incubated for 72 hrs; type: functional, cell-based; settings: dose 5-1500 nM
[5] = biological target: Protein kinase C delta type (Homo sapiens, UniProt Q05655); experiment: Binding affinity to PKCdelta (unknown origin) assessed as inhibition constant
U-937 [6] = experiment: Induction of cell attachment in human U-937 cells at 1 to 100 nM incubated for 72 hrs relative to control; type: functional; settings: dose 1-100 nM
U-937 [7] = experiment: Growth inhibition of human U-937 cells assessed as reduction in total cell number at 1 to 10 nM incubated for 72 hrs; type: functional, cell-based; settings: dose 1-10 nM
LNCaP [8] = experiment: Growth inhibition of human LNCaP cells at 1.5 uM incubated for 72 hrs; type: functional, cell-based
U-937 [9] = experiment: Growth inhibition of human U-937 cells assessed as reduction in total cell number at 1000 nM incubated for 72 hrs; type: functional, cell-based
U-937 [10] = experiment: Induction of cell attachment in human U-937 cells at more than 10 nM incubated for 72 hrs relative to control; type: functional
LNCaP [11] = experiment: Growth inhibition of human LNCaP cells at < 10 nM incubated for 72 hrs; type: functional, cell-based
U-937 [12] = experiment: Induction of cell attachment in human U-937 cells at 1 nM incubated for 72 hrs relative to control; type: functional
U-937 [13] = experiment: Growth inhibition of human U-937 cells assessed as reduction in total cell number at 1 nM incubated for 72 hrs; type: functional; settings: read-out: GI
U-937 [14] = experiment: Growth inhibition of human U-937 cells assessed as reduction in total cell number at 100 nM incubated for 72 hrs; type: functional; settings: read-out: GI
U-937 [15] = experiment: Induction of cell attachment in human U-937 cells at 100 nM incubated for 72 hrs relative to control; type: functional

Sequence of Protein kinase C delta type (Q05655 whole entry): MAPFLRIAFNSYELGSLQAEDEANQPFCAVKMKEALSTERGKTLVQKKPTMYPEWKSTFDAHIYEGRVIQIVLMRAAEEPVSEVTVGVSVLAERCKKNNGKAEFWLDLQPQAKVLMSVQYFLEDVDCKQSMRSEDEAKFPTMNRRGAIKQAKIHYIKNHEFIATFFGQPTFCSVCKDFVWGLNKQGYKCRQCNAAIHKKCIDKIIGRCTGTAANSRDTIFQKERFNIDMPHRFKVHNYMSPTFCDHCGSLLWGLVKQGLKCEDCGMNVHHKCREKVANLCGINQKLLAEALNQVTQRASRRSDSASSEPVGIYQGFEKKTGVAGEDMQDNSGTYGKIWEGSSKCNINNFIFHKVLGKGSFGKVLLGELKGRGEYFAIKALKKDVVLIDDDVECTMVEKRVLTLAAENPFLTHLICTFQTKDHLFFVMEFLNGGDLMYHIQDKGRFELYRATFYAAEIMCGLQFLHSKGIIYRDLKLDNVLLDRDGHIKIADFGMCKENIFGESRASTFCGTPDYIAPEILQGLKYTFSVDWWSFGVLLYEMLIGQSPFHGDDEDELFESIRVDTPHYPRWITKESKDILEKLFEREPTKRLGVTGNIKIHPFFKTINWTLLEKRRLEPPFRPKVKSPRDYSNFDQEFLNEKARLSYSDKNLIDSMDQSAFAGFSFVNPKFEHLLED

For `CC(C)[C@H]1C(=O)N[C@H](CO)Cc2cn(C(C)C)c3cccc(c23)N1C`, which Activity (U-937 [1]) is on record?
Its Activity is “inactive”.

And the Activity (U-937 [2])?
The Activity was 6.5%.

What about the Activity (U-937 [3]) of the same molecule?
Its Activity is “Active”.

And the “growth inhibition (GI)” value (LNCaP [4])?
Its value is “Active”.

And the Ki [5]?
Its Ki is 32 nM.

And the Activity (U-937 [6])?
The Activity was <2%.

How did the “growth inhibition (GI)” value (U-937 [7]) turn out when `CCC/C=C/C=C/C(=O)O[C@H]1/C(=C/C(=O)OC)C[C@H]2C[C@H]([C@@H](C)O)OC(=O)C[C@H](O)C[C@@H]3C[C@H](OC(C)=O)C(C)(C)[C@](O)(C[C@@H]4C/C(=C/C(=O)OC)C[C@H](/C=C/C(C)(C)[C@]1(O)O2)O4)O3` [BRYOSTATIN 1] was run?
Its value is “inactive”.

What about the “growth inhibition (GI)” value (LNCaP [8]) of the same molecule?
Its value is “inactive”.

And the “growth inhibition (GI)” value (U-937 [9])?
The value was “Active”.

What about the Activity (U-937 [2]) of the same molecule?
The Activity was 1.8%.

`CC(=O)n1cc2c3c(cccc31)N(C)[C@@H](C(C)C)C(=O)N[C@H](CO)C2` was tested. Which Activity (U-937 [1]) did it give?
The Activity was “inactive”.

And the Activity (U-937 [3])?
The Activity was “Active”.

What about the “growth inhibition (GI)” value (LNCaP [4]) of the same molecule?
The value was “Active”.

And the Ki [5]?
Its Ki is 94 nM.

What about the Activity (U-937 [6]) of the same molecule?
The Activity was <2%.

How did the Activity (U-937 [10]) turn out when `C=C[C@@](C)(CCC=C(C)C)c1ccc2c3c(c[nH]c13)C[C@@H](CO)NC(=O)[C@H](C(C)C)N2C` was run?
The Activity was >60%.

What does the source list for `CCCCCCCCCCCCCC(=O)O[C@H]1[C@H](C)[C@]2(O)[C@H](C=C(CO)C[C@@]3(O)C(=O)C(C)=C[C@H]23)[C@H]2C(C)(C)[C@@]12OC(C)=O`?
growth inhibition (GI) (LNCaP [11]): Active; Activity (U-937 [12]): 85.4%; inhibition of growth at 0.001 µM (U-937 [13]): 21.5%

Which Activity (U-937 [10]) does the source give for `C=CC(C)(C)c1ccc2c3c(c[nH]c13)C[C@@H](CO)NC(=O)[C@H](C(C)C)N2C` [PENDOLMYCIN] here?
Its Activity is >60%.

How did the inhibition of growth at 0.1 µM (U-937 [14]) turn out when `CC(C)[C@H]1C(=O)N[C@H](CO)Cc2c[nH]c3cccc(c23)N1C` [INDOLACTUM] was run?
Its inhibition of growth at 0.1 µM is 25.7%.

What about the Activity (U-937 [15]) of the same molecule?
Its Activity is 44.2%.

And the Activity (U-937 [2])?
Its Activity is 70.3%.
